This passage reports IC50 and EC50 results from patent publication US20140249135A1, “PIM KINASE INHIBITORS AND METHODS OF THEIR USE” (NOVARTIS AG, priority 2007, published 2014).

Values joined by “and” are separate entries in the source; they are usually repeats but may differ in a detail not shown here. Equal entries are not always repeated.

What is called IC50 is the midpoint of a concentration-inhibition curve. What is called EC50 is the concentration at which the effect is half-maximal. Higher therefore signals a less potent agent.

Experiment [1] addresses T1, human full length PKCE enzyme (Homo sapiens, UniProt Q02156).
T1 construct: human full length PKCE enzyme purchased from InVitrogen; purchased InVitrogen
T1 sequence (Q02156 1-737): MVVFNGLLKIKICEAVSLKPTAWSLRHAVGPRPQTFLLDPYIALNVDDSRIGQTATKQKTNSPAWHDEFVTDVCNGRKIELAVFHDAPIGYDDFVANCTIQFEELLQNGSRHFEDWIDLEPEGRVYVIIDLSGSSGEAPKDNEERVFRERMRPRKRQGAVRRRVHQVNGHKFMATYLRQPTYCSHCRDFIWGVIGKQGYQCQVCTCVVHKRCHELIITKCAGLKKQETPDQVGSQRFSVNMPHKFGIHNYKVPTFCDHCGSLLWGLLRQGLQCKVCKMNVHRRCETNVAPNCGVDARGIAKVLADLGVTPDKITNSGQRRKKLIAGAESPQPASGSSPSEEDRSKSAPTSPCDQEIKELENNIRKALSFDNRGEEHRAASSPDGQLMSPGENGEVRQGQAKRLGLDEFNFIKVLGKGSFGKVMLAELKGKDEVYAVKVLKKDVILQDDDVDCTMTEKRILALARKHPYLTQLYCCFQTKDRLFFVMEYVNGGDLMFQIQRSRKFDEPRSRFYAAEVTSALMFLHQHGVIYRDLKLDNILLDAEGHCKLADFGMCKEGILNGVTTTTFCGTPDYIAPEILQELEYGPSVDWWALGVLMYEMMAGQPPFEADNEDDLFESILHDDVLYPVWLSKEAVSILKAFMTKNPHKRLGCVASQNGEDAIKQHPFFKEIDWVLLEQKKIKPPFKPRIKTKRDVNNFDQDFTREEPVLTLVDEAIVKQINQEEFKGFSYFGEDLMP
The experiment can be described thus: In vitro PKCE assay. The settings on record: 10 nM enzyme, 40 uM peptide substrate, 20 uM ATP, KinaseGlo Plus readout; read-out: PKCε IC50. Format: biochemical. A general note: Kinase-Glo measures the ATP left after a reaction by luminescence.

For another experiment, the system named is PC3 cells. In words: Cell proliferation assay (CellTiter-Glo), PC3. Format: cell-based. The settings on record: Homo sapiens, PC-3. How it is done: HEL 92.1.7 cells (ATTC No. TIB-180, an erythroleukemia line derived from malignant peripheral blood), MV4-11 cells (ATCC No. CRL-9591, a human acute monocytic leukemia line) and PC3 cells (ATCC No. CRL-1435, a human prostatic adenocarcinoma line) were cultured in RPMI1640 supplemented with 10% FBS, sodium pyruvate and antibiotics. Cells were plated in the same medium at a density of 1000 cells per well into 96 well tissue culture plates, with outside wells vacant, on the day of assay.
Test compounds supplied in DMSO were diluted into DMSO at 500 times the desired final concentrations before dilution into culture media to 2 times final concentrations. Equal volumes of 2× compounds were added to the cells in 96 well plates and incubated at 37° C. for 3 days.
After 3 days plates were equilibrated to room temperature and equal volume of CellTiter-Glow Reagent (Promega) was added to the culture wells. The plates were agitated briefly and luminescent signal was measured with luminometer. The percent inhibition of the signal seen in cells treated with DMSO alone vs. cells treated with control compound was calculated and used to determine EC50 values (i.e., the concentration of a test compound that is required to obtain 50% of the maximum effect in the cells) for tested compounds, as shown in Example 763.

The target in the next experiment is Pim2 kinase (Homo sapiens, UniProt Q9P1W9). In words: Pim2 ATP depletion assay.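 Also: Luciferase-based luminescent readout of ATP remaining after PIM2 phosphorylates a BAD peptide, final 5 nM enzyme, 4 µM ATP, 10 µM peptide, 2.5% DMSO, run to roughly half ATP consumption.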 Format: biochemical. The following applies: read-out: IC50 (μM) PIM2.
In the next experiment the target is Pim1 kinase (Homo sapiens, UniProt P11309). The experiment can be described thus: Pim1 ATP depletion assay.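 Also: Luciferase-luciferin luminescence readout of residual ATP after PIM1 transfers phosphate to a peptide substrate, 40 µM ATP added, reaction run to roughly half ATP consumption.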 Format: biochemical. The settings on record: Pim1 ATP depletion assay; read-out: IC50 (μM) PIM1.
The next experiment deals with Pim3 kinase (Homo sapiens, UniProt Q86V86). In words: Pim3 ATP depletion assay. Format: biochemical. The following applies: read-out: IC50 (μM) PIM3.
Another experiment deals with KDR kinase (Homo sapiens, UniProt P35968). The experiment can be described thus: KDR AlphaScreen assay. The following applies: KDR IC50 (μM). (Alpha assays give light when donor and acceptor beads are brought close together.)
Sequence of KDR kinase (P35968 20-1356): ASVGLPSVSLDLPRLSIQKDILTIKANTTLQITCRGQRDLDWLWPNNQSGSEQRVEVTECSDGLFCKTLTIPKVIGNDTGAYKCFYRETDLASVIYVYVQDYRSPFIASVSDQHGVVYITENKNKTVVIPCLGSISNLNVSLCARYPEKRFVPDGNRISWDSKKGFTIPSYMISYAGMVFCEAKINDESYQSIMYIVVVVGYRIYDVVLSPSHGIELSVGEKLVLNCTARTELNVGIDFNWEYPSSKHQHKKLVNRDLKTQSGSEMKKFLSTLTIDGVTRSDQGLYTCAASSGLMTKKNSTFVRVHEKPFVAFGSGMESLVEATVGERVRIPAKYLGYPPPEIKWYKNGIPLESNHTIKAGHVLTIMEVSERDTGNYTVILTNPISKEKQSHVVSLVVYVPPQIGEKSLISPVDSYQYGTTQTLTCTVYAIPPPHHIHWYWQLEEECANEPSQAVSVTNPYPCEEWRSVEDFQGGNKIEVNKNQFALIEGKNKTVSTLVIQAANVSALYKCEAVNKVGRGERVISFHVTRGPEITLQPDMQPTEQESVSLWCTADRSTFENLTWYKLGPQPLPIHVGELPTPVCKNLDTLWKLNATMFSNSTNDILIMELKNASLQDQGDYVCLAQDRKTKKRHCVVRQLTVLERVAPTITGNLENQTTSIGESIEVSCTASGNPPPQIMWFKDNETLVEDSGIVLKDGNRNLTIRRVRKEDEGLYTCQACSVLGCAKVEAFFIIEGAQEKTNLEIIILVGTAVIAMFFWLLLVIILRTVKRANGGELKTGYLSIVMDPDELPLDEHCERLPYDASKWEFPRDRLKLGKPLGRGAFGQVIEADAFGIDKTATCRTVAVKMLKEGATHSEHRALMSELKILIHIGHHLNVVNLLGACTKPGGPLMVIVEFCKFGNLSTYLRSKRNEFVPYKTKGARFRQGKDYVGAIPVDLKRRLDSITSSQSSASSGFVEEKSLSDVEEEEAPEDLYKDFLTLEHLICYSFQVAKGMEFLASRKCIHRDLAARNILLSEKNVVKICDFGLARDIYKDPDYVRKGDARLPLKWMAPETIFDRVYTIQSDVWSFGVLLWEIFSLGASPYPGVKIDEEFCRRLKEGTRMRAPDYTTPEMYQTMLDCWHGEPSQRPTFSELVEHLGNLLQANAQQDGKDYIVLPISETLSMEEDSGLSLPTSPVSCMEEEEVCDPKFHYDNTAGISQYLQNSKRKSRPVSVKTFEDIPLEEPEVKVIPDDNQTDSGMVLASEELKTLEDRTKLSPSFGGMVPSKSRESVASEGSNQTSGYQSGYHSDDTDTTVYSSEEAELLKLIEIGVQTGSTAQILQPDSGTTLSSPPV

Sequence of Pim1 kinase (P11309 whole entry): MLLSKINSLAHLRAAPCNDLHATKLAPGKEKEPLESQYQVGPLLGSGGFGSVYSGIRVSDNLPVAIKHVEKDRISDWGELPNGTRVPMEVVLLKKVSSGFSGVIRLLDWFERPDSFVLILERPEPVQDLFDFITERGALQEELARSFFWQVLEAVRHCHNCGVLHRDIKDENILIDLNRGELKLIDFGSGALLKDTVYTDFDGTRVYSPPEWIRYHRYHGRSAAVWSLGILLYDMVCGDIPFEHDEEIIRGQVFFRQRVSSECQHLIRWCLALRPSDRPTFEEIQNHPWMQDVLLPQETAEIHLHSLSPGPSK
Sequence of Pim2 kinase (Q9P1W9 whole entry): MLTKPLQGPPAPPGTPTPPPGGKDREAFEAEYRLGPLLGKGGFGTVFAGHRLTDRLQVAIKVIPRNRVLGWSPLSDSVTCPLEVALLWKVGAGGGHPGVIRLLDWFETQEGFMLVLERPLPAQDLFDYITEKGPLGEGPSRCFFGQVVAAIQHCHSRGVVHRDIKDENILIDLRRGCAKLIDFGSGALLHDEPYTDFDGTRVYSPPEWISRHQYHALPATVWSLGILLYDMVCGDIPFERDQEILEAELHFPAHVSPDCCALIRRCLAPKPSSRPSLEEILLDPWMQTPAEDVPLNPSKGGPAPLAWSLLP

Regarding `Nc1nccnc1C(=O)Nc1ccncc1N1CCCCC1` [Example 122, 3-amino-N-(3-piperidin-1-yl-pyridin-4-yl)pyrazine-2-carbox-amide], the IC50 in experiment [1] was below 1 µM; at Pim2 kinase, 1 to 10 µM; on Pim1 kinase it was below 1 µM; on Pim3 kinase, 1 to 10 µM. Also, the EC50 with PC3 cells was below 1 µM.
As to `CN(C)C1CCN(c2ccncc2NC(=O)c2nccnc2N)CC1` [Example 126, 3-amino-N-{4-[4-(dimethyl-amino)piperidin-1-yl]pyridin-3-yl}pyrazine-2-carboxamide], the IC50 in experiment [1] is below 1 µM; against KDR kinase, 1 to 10 µM; on Pim2 kinase, 1 to 10 µM; at Pim1 kinase, below 1 µM; on Pim3 kinase it was below 1 µM. The molecule further returned an EC50 with PC3 cells of 5 to 10 µM.
For the molecule `Nc1nccnc1C(=O)Nc1cnccc1N1CCC(N)CC1` [Example 193, 3-amino-N-[4-(4-aminopiperidin-1-yl)pyridin-3-yl]pyrazine-2-carboxamide], the IC50 in experiment [1] was below 1 µM; at Pim2 kinase it was 1 to 10 µM; at Pim1 kinase, below 1 µM; at Pim3 kinase, below 1 µM. The molecule also registered an EC50 in the experiment with PC3 cells below 1 µM.
For `Nc1nccnc1C(=O)Nc1ccccc1N1CCCC(N)C1` (stereo not drawn) [Example 195, 3-amino-N-[2-(3-aminopiperidin-1-yl)phenyl]pyrazine-2-carboxamide], the 50% inhibitory concentration (IC50) in experiment [1] is below 1 µM; against KDR kinase, above 25 µM; at Pim2 kinase it was below 1 µM; on Pim1 kinase, below 1 µM; at Pim3 kinase, below 1 µM. This molecule also returned an EC50 in the experiment with PC3 cells above 10 µM.
On to `Nc1nccnc1C(=O)Nc1ccccc1N1CCC[C@H](N)C1` [Example 201, 3-amino-N-{2-[(3S)-3-amino-piperidin-1-yl]phenyl}pyrazine-2-carboxamide], for which the IC50 in experiment [1] was below 1 µM; against KDR kinase it was 10 to 25 µM; on Pim2 kinase, below 1 µM; on Pim1 kinase, below 1 µM; at Pim3 kinase it was below 1 µM. This molecule displayed an EC50 in the experiment with PC3 cells of 5 to 10 µM.
Turning to `Nc1ncc(-c2ccccc2F)nc1C(=O)Nc1cnccc1N1CCNCC1` [Example 363, 3-amino-6-(2-fluoro-phenyl)-pyrazine-2-carboxylic acid (4-piperazin-1-yl-pyridin-3-yl)-amide], the IC50 (in experiment [1]; against KDR kinase; on Pim1 kinase; on Pim3 kinase) was below 1 µM each time. This molecule gave an EC50 in the experiment with PC3 cells below 1 µM.
With `Nc1ncc(-c2ccccc2)nc1C(=O)Nc1cnccc1N1CCC(N)CC1` [Example 364, 3-amino-6-phenyl-pyrazine-2-carboxylic acid (4-amino-3,4,5,6-tetrahydro-2H-[1,4′]bi-pyridinyl-3′-yl)-amide], the IC50 in experiment [1] is below 1 µM; at KDR kinase, < 1 µM and 1 to 10 µM; at Pim1 kinase it was below 1 µM; at Pim3 kinase, below 1 µM. This molecule yielded an EC50 in the experiment on PC3 cells below 1 µM.
Take `COc1ccc(-c2cnc(N)c(C(=O)Nc3cnccc3N3CCC(N)CC3)n2)cc1` [Example 367, 3-amino-6-(4-methoxy-phenyl)-pyrazine-2-carboxylic acid (4-amino-3,4,5,6-tetra-hydro-2H-[1,4′]bipyridinyl-3′-yl)-amide]: the IC50 (in experiment [1]; at KDR kinase; on Pim1 kinase; on Pim3 kinase) was below 1 µM each time. In the experiment on PC3 cells, the EC50 is below 1 µM.
`Nc1ncc(-c2ccccc2F)nc1C(=O)Nc1cnccc1N1CCC(N)CC1` [Example 368, 3-amino-6-(2-fluoro-phenyl)-pyrazine-2-carboxylic acid (4-amino-3,4,5,6-tetrahydro-2H-[1,4′]bipyridinyl-3′-yl)-amide]: the half-inhibitory concentration (IC50) (in experiment [1]; at KDR kinase; at Pim1 kinase; on Pim3 kinase) was below 1 µM throughout. In the experiment with PC3 cells, this molecule returned an EC50 below 1 µM.
